Data from patent US20100204254A1, “Use of statins in the prevention and treatment of radiation injury and other disorders associated with reduced endothelial thrombomodulin” (The University of Arkansas for Medical Sciences, priority 2002, published 2010).

Columns and labels:
[1] = tested on: thrombomodulin mRNA (EA.hy926 endothelial cells); experiment: Fluorogenic probe RT-PCR, steady-state thrombomodulin mRNA; assay type: cell-based, human; design: concentration dependence of thrombomodulin mRNA: dose or concentration left out as unconfirmed; settings: for mRNA (thrombomodulin): FPP 10 μM, squalene 100 μM, GGPP 10 μM, atorvastatin 10 μM, intermediates 30 min before 24-hour atorvastatin, mean ± SEM, method gives % b-actin; for increase in thrombomodulin transcript: 10 mM atorvastatin
Procedure: (§1) Steady-state TM mRNA levels were measured using quantitative real-time RT-PCR (Dr. G. Shipley, Quantitative Genomics Core Laboratory, University of Texas Health Science Center, Houston, Tex.). Human thrombomodulin and b-actin fluorogenic oligonucleotide probes and primers were designed from Genbank sequences, using Primer Express software (Applied Biosystems, Foster City, Calif.) and synthesized by Biosource International (Camarillo, Calif.). Total RNA was extracted using TRIZOL Reagent (Invitrogen, Carlsbad, Calif.) and the RNA samples were treated with RNAse-free DNAse I (Promega, Madison, Wis.). cDNA was synthesized from total RNA in 10 μl total volume, consisting of 6 μl RT master mix (Invitrogen, Carlsbad, Calif.) and a 4-μl RNA sample (30 ng/μl), using a thermocycler (MJR, Waltham, Mass.) for 30 minutes at 50° C. followed by 72° C. for 10 min. Samples were measured in triplicate. An assay-specific sDNA standard spanning a 5-log range and appropriate controls were included. Forty ml of a PCR master mix was pipetted directly onto each well of the cDNA plate utilizing a Biomek 2000 robotic workstation (Beckman, Fullerton, Calif.), and amplified (95° C. for 1 min; 40 cycles of 95° C. for 12 sec, and 60° C. for 1 min) using the 7700 Sequence Detector (Applied Biosystems). The data were normalized to b-actin and presented as molecules of TM transcript/molecules of b-actin transcript×100 (% b-actin).

[2] = tested on: thrombomodulin protein (EA.hy926 endothelial cells); experiment: Western blotting of thrombomodulin protein in cell lysates; assay type: cell-based, human; settings: for Protein (thrombomodulin): same treatments, untreated control = 100, mean ± SEM
Procedure: (§2) Cells were harvested with trypsin/EDTA and lysed in lysis buffer (10 mM Tris, pH7.4, 150 mM NaCl, 1 mM EDTA, IGPAL CA630, 1 mM PMSF). Protein concentration was measured with the BCA assay (Pierce, Rockford, Ill.). Proteins (20 μg/per lane) were resolved by NuPAGE 4-10% Bis-tris gel electrophoresis (Invitrogen, Carlsbad, Calif.) and electrotransferred onto nitrocellulose membranes. Membranes were probed with primary mouse anti-human thrombomodulin antibody (American Diagnostica), followed by application of a secondary horseradish peroxidase-conjugated (HRP) anti-mouse IgG antibody (American Diagnostica). A mouse anti-human b-actin antibody (either from Sigma or Santa Cruz Biotechnology) was used for protein loading control. HRP signals were detected with an enhanced chemiluminescence (ECL) detection system (Amersham Pharmacia Biotech). Band densities were determined from X-Ray film using SigmaGel software (Jandel Scientific, San Rafael, Calif.).
Total thrombomodulin protein in cell lysates was measured by western blotting. EA.hy926 cells were grown to early (90%+) confluence. The cells were washed with 1×PBS twice and lysed by adding 1 ml lysis buffer (10 mM Tris, pH 7.4; 150 mM NaCl; 1 mM EDTA; 1% NP-40 or IGPAL CA630; 1 mM PMSF), and the lysate was collected into eppendorf tubes. Protein concentrations were measured with the BCA protein assay kit (Pierce). Protein aliquots of each sample were mixed with 4× loading buffer, placed in a boiling water bath for 5 min, and subsequently separated by NuPAGE 4-10% Bis-tris gel electrophoresis (Invitrogen Life Technologies). The proteins were transferred to a nitrocellulose membrane, probed with primary monoclonal mouse anti-human thrombomodulin antibody at 1:1000 and secondary anti-mouse IgG-HRP antibody at 1:2000 (American Diagnostica, Inc.) using standard procedures. The HRP signal was detected using ECL detection reagents (Amersham Life Sciences) and visualized on X-ray film.

[3] = tested on: cell surface thrombomodulin (EA.hy926 endothelial cells); experiment: Flow cytometry, cell surface thrombomodulin antigen (CD-141); assay type: cell-based, human; settings: for Antigen (cell surface thrombomodulin): same treatments, mean ± SEM, method gives antibody binding sites
Procedure: (§3) Cells were examined for surface antigen expression by flow cytometry, using specific phycoerythrin-conjugated mouse antibodies against human TM (CD-141), a general endothelial cell marker (PECAM [CD-31]), and markers of stimulated endothelial cells (tissue factor [CD-142] and P-selectin [CD-62]) (BD Biosciences, San Diego, Calif.). Cell viability was assessed using 7-amino-actinomycin D (7-AAD). Phycoerythrin-conjugated mouse IgG was used as negative control. A total of 1×10^5 cells were used for each analysis. Cells were harvested, stained with appropriate phycoerythin-conjugated antibodies, fixed in 1% paraformaldehyde, and analysis was performed using a FACSCalibur Flow Cytometer (BD Immunocytometry System, San Jose, Calif.), QuantiBRITE-PE beads (BD Biosciences, San Diego, Calif.), and CELLQuest software. Antigen levels were expressed as antibody binding sites (ABS).

[4] = tested on: thrombomodulin activity (EA.hy926 endothelial cells); experiment: Protein C activation assay (thrombomodulin activity); assay type: cell-based, human; design: concentration dependence of cell surface thrombomodulin activity: dose or concentration left out as unconfirmed; settings: for Activity (thrombomodulin, protein C activation): same treatments, mean ± SEM, method gives OD slope; for influence of enzyme inhibitors on thrombomodulin activity: data not shown; for effect of nitric oxide donors on thrombomodulin activity: 10 mM
Procedure: (§4) TM activity was assessed by measuring protein C activation in early confluent cells grown on 96-well plates. Cells were washed twice with PBS and incubated with […] protein C and 1 nM thrombin (60 min at 37° C., […] total volume) to generate activated protein C. Excess thrombin was quenched with hirudin ([…], 0.2 ATu/ml). The amount of activated protein C generated was measured by monitoring hydrolysis of chromogenic substrate S-2366 at 5-min intervals at 405 nm in a microplate reader (Bio-TEK Instruments, Winooski, Vt.). The results were expressed as mean OD slope values (DOD/Dt).
The functional activity of thrombomodulin was assessed by measuring the ability of the endothelial cells to activate protein C. All samples and reagents were diluted in APC assay diluent (20 mM Tri-HCl, pH7.4, 100 mM NaCl, 2.5 mM CaCl2, 0.5% BSA). Exponentially growing EA.hy 926 endothelial cells were seeded into 96 well plates in triplicate (2×10^4 per well). Cells were allowed to attach and grow overnight, and then washed twice with PBS and incubated for 60 min in 60 μl total volume at 37° C. with 0.5 μM protein C and 1 nM thrombin to generate activated protein C. Excess thrombin was blocked with a superstoichiometric amount of hirudin (20 μl, 0.16 U/μl, 570 nM). Generation of active protein C was determined by using a chromogenic substrate S-2366 and absorbance at 405 nm was measured by using a Vmax kinetic microplate reader.

[5] = tested on: endothelial cell thrombomodulin (EA.hy926 endothelial cells); experiment: Thrombomodulin expression and activity overall (mRNA, protein, surface antigen, activity); assay type: cell-based, human; design: blocking of atorvastatin-induced thrombomodulin upregulation: dose or concentration left out as unconfirmed; settings: for blocking of atorvastatin-induced thrombomodulin upregulation: 30 min pre-incubation
Procedure: as §1, §2, §3, §4
Statins, by inhibiting HMG-CoA reductase, reduce the formation of mevalonate (FIG. 7). […]

[6] = tested on: thrombomodulin activity (human intestinal microvascular cells); experiment: Protein C activation assay (thrombomodulin activity); assay type: cell-based
Procedure: as §4

[7] = tested on: tissue factor (EA.hy926 endothelial cells); experiment: Tissue factor (CD-142) expression after TNF-a exposure; assay type: cell-based, human; settings: atorvastatin pre-treatment, data not shown
Procedure: as §3
TNF-a potently downregulates endothelial thrombomodulin, an effect that is pathophysiologically significant in sepsis and related disorders. Therefore, the effect of atorvastatin on TNF-a-induced downregulation of endothelial cell thrombomodulin was examined. Exposure of EA.hy926 cells to TNF-a (1-20 ng/ml for 24 hours) caused a dose-dependent increase in apoptosis (4-fold at 10 ng/ml) and tissue factor (2.5-fold) and decreased thrombomodulin by 75% (data not shown). […]

[8] = tested on: EA.hy926 endothelial cells; experiment: Apoptosis after TNF-a exposure; assay type: cell-based, human; settings: atorvastatin pre-treatment, data not shown
Procedure: TNF-a potently downregulates endothelial thrombomodulin, an effect that is pathophysiologically significant in sepsis and related disorders. Therefore, the effect of atorvastatin on TNF-a-induced downregulation of endothelial cell thrombomodulin was examined. Exposure of EA.hy926 cells to TNF-a (1-20 ng/ml for 24 hours) caused a dose-dependent increase in apoptosis (4-fold at 10 ng/ml) and tissue factor (2.5-fold) and decreased thrombomodulin by 75% (data not shown). EA.hy926 cells were pre-treated with atorvastatin (10 μM for 30 min) before exposure to TNF-a (1 or 10 ng/ml, 24 hours).

[9] = 24 hours, atorvastatin 0.1-15 mM
[10] = statin before radiation, normal and irradiated cells, 24 hours after irradiation
[11] = atorvastatin 10 μM for 30 min before TNF-a 1 or 10 ng/ml, 24 hours

In the case of CC(C)=CCC/C(C)=C/CC/C(C)=C/CC/C=C(\C)CC/C=C(\C)CCC=C(C)C [Squalene, squalene], the “mRNA (thrombomodulin)” value [1] is reported as 5.9 ± 1.0, the “Protein (thrombomodulin)” value [2] is reported as 147 ± 29 and the “Antigen (cell surface thrombomodulin)” value [3] is reported as 60.9 ± 1.9. For the same compound, the “Activity (thrombomodulin, protein C activation)” value [4] was 2.4 ± 0.6 and the “blocking of atorvastatin-induced thrombomodulin upregulation” value (shortened to “blocking”) [5] was “ineffective in blocking”.
In the case of COC(=O)[C@H](CC(C)C)NC(=O)c1ccc(NC[C@@H](N)CS)cc1-c1cccc2ccccc12 [GGTI-298], the “influence of enzyme inhibitors on thrombomodulin activity” value [4] is reported as “increasing thrombomodulin activity”.
For CC1(C)N([O])C(c2ccccc2)=[N+]([O-])C1(C)C [PTIO, 2-Phenyl-4,4,5,5-tetramethylimidazoline-1-oxyl 3-oxide], the “effect of NO scavenger on atorvastatin-induced increase in thrombomodulin activity” value ([4]; pre-incubation with 100 mM) was “inhibited the atorvastatin-induced increase in thrombomodulin activity”.
For CC(O)(CCO)CC(=O)O (centres unmarked) [mevalonate, Mevalonate], the “inhibition of atorvastatin-induced thrombomodulin upregulation” value ([5]; 100 mM or 500 mM mevalonate 30 min prior to 24-hour) was “dose-dependent inhibition” and the “inhibition of atorvastatin-induced thrombomodulin upregulation” value ([5]; higher mevalonate concentration) was “virtually complete inhibition”.
For CC(C)c1c(C(=O)Nc2ccccc2)c(-c2ccccc2)c(-c2ccc(F)cc2)n1CC[C@@H](O)C[C@@H](O)CC(=O)O [atorvastatin], the “increase in thrombomodulin transcript” value ([1]; 8 hours) was 3 fold, the “increase in thrombomodulin transcript” value ([1]; 24 hours) was > 10 fold and the “concentration dependence of thrombomodulin mRNA” value ([1]; 24 hours) was “prominent dose-dependent increase”. The “mRNA (thrombomodulin)” value [1] was 71.7 ± 8.8, the “increase in thrombomodulin protein” value ([2]; 10 mM atorvastatin, 24 hours) was 2- to 3 fold and the “concentration dependence of cellular thrombomodulin protein” value [2, 9] was “prominent dose-dependent increase”. For the same compound, the “thrombomodulin protein, Western blot of cell lysates” value ([2]; irradiated and non-irradiated cells) was “prominent increase in thrombomodulin protein”, the “Protein (thrombomodulin)” value [2] was 403 ± 70 and the “increase in cell surface TM antigen” value ([3]; 10 mM statin, 24 hours) was 2- to 3 fold. For the same compound, the “concentration dependence of cell surface thrombomodulin antigen” value [3, 9] was “prominent dose-dependent increase”, the “Antigen (cell surface thrombomodulin)” value [3] was 146.2 ± 1.9 and the “thrombomodulin antigen expression compared to control endothelial cells” value [3, 10] was “significantly higher”. The “increase in TM activity (protein C activation)” value ([4]; 10 mM statin, 24 hours) was 2- to 3 fold, the “thrombomodulin activity in irradiated endothelial cells” value ([4]; 25 Gy single dose radiation) was “essentially restored normal thrombomodulin activity” and the “concentration dependence of cell surface thrombomodulin activity” value ([4]; 24 hours, different concentrations) was “prominent dose-dependent increase”. For the same compound, the “effect on TNF-a-induced downregulation of thrombomodulin activity” value [4, 11] was “completely counteracted”, the “Activity (thrombomodulin, protein C activation)” value [4] was 4.1 ± 0.3 and the “thrombomodulin activity compared to control endothelial cells” value [4, 10] was “significantly higher”. For the same compound, the “endothelial thrombomodulin activity (protein C activation assay)” value [6] was “significantly affected”, the “levels of thrombomodulin gene expression, protein and surface expression under TNF-a” value [5, 11] was “significantly above those of untreated control cells” and the “effect on TNF-a-induced tissue factor expression” value [7] was “did not affect”. For the same compound, the “effect on TNF-a-induced apoptosis” value [8] was “did not affect”.
In the case of C=C(CC[C@]12O[C@H](C(=O)O)[C@@](O)(C(=O)O)[C@](C(=O)O)(O1)[C@H](OC(=O)/C=C/[C@@H](C)C[C@@H](C)CC)[C@H]2O)[C@@H](OC(C)=O)[C@H](C)Cc1ccccc1 [zaragozic acid, zaragozic acid A], the “influence of enzyme inhibitors on thrombomodulin activity” value [4] is reported as “no effect”.
Cl.N=c1c[n+](N2CCOCC2)[n-]o1 [SIN-1, 3-Morpholinosydnonimine hydrochloride] was tested, and the “effect of nitric oxide donors on thrombomodulin activity” value [4] was “mimicked the effect of atorvastatin on thrombomodulin activity”.
For CCCN(CCCN)N(O)N=O [PAPA-NONOate, 3-(2-Hydroxy-2-nitroso-1-propylhydrazino)-1-propanamine], the “effect of nitric oxide donors on thrombomodulin activity” value [4] was “mimicked the effect of atorvastatin on thrombomodulin activity”.
With CC(C)=CCC/C(C)=C/CC/C(C)=C/COP(=O)(O)OP(=O)(O)O [FPP, farnesyl-pyrophosphate] the “mRNA (thrombomodulin)” value [1] was 8.2 ± 1.9, the “Protein (thrombomodulin)” value [2] was 94 ± 9 and the “Antigen (cell surface thrombomodulin)” value [3] was 74.3 ± 1.1. The “Activity (thrombomodulin, protein C activation)” value [4] was 3.6 ± 0.3 and the “blocking” value [5] was “only partially blocked”.
With CC(C)=CCC/C(C)=C/CC/C(C)=C/CC/C(C)=C/COP(=O)(O)OP(=O)(O)O [GGPP, geranylgeranyl-pyrophosphate] the “mRNA (thrombomodulin)” value [1] was 5.4 ± 0.5, the “Protein (thrombomodulin)” value [2] was 124 ± 11 and the “Antigen (cell surface thrombomodulin)” value [3] was 66.6 ± 5. The “Activity (thrombomodulin, protein C activation)” value [4] was 3.0 ± 0.7 and the “blocking” value [5] was “completely blocked”.
